According to patent US8614327B2 (Vertex Pharmaceuticals Incorporated, priority 2004, dated 2013):

Target: T1, ΔF508-CFTR (Homo sapiens, UniProt P13569, DEL508-508)
T1 construct: expressed in transfected cells
Assay: Membrane potential optical (FRET/VIPR) assay, identification of potentiator compounds
Type: cell-based
Settings: Table 3, assay not given; for % Activity: relative efficacy
Procedure, shortened: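 NIH3T3 mouse fibroblasts stably expressing ΔF508-CFTR, temperature-corrected 24 h at 27° C., read on VIPR by FRET between CC2-DMPE and DiSBAC2(3). Potentiators identified in a double-addition format, first adding chloride-free (gluconate) medium with or without compound.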

T1 sequence (P13569 with tags, fused parts or gaps DEL508-508): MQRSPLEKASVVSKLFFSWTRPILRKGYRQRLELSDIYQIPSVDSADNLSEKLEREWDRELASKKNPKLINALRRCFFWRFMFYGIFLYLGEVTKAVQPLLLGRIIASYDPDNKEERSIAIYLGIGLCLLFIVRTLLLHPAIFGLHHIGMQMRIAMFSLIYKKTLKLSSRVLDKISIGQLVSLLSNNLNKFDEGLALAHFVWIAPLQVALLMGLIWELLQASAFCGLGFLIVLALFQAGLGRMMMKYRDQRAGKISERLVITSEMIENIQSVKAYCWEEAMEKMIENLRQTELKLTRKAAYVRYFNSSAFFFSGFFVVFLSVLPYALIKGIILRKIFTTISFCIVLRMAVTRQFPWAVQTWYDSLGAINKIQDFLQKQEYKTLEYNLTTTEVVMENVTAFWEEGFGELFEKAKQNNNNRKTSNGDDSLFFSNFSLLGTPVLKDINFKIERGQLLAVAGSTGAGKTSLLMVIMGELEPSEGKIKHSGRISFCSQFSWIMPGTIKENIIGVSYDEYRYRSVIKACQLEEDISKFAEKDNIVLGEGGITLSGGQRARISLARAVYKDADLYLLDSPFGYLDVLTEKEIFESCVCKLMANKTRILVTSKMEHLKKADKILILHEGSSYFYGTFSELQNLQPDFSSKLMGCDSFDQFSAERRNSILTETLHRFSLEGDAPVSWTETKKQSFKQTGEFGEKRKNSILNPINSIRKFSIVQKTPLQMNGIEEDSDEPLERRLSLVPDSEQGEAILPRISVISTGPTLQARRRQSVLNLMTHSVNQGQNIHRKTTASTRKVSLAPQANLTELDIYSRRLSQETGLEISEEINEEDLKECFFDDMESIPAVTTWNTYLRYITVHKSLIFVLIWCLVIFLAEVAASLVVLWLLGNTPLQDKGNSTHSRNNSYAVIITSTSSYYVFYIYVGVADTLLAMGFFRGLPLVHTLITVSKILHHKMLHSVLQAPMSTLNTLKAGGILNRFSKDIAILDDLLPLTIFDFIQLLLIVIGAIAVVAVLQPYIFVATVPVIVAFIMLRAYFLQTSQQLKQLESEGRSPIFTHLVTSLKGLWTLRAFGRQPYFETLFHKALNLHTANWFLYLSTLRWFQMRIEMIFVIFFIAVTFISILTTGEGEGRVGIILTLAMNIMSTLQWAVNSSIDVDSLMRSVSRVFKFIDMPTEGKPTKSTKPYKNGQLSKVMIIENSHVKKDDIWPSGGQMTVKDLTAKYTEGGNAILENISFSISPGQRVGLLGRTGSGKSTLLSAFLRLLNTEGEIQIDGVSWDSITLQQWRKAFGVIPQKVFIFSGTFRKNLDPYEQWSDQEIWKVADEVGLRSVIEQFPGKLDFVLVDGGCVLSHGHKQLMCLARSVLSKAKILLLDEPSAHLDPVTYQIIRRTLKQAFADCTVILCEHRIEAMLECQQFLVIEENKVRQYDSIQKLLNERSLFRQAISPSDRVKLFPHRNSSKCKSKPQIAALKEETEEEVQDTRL

| Structure (SMILES) | EC50 | % Activity |
| --- | --- | --- |
| O=C(Nc1cccc(S(=O)(=O)N2CCCC2)c1)c1c[nH]c2ccccc2c1=O [Compound 24, 4-oxo-N-(3-pyrrolidin-1-ylsulfonylphenyl)-1H-quinoline-3-carboxamide] | 25 to 60 µM | + (<25%) |
| NS(=O)(=O)c1cccc(NC(=O)c2c[nH]c3ccccc3c2=O)c1 [Compound 9, 4-oxo-N-(3-sulfamoylphenyl)-1H-quinoline-3-carboxamide] | 25 to 60 µM | + (<25%) |
| CSc1ccccc1-c1ccccc1NC(=O)c1c[nH]c2ccccc2c1=O [Compound 279, N-[2-(2-methylsulfanylphenyl)phenyl]-4-oxo-1H-quinoline-3-carboxamide] | – | ++ (between 25% to 100%) |
| O=C(Nc1cccc2c1CCCC2)c1c[nH]c2ccccc2c1=O [Compound 286, 1,4-dihydro-N-(1,2,3,4-tetrahydronaphthalen-5-yl)-4-oxoquinoline-3-carboxamide] | < 10 µM | +++ (>100%) |
| CC1(c2ccc(NC(=O)c3c[nH]c4ccccc4c3=O)cc2)COC1 [Compound 523, N-[4-(3-methyloxetan-3-yl)phenyl]-4-oxo-1H-quinoline-3-carboxamide] | < 10 µM | ++ (between 25% to 100%) |
| CCc1ccc(NC(=O)c2c[nH]c3ccccc3c2=O)cc1N [Compound 8, N-(3-amino-4-ethyl-phenyl)-4-oxo-1H-quinoline-3-carboxamide] | < 10 µM | ++ (between 25% to 100%) |
| O=C(Nc1ccc(N2CCC[C@@H]2C(=O)O)cc1C(F)(F)F)c1c[nH]c2ccccc2c1=O [Compound 698, (R)-1-[4-[(4-oxo-1H-quinolin-3-yl)carbonylamino]-3-(trifluoromethyl)phenyl]pyrrolidine-2-carboxylic acid] | < 10 µM | ++ (between 25% to 100%) |
| CC(CO)(CO)c1ccc(NC(=O)c2c[nH]c3ccccc3c2=O)cc1 [Compound 590, N-[4-[2-hydroxy-1-(hydroxymethyl)-1-methyl-ethyl]phenyl]-4-oxo-1H-quinoline-3-carboxamide] | < 10 µM | + (<25%) |
| Nc1cc(NC(=O)c2c[nH]c3ccccc3c2=O)ccc1Cl [Compound 453, N-(3-amino-4-chloro-phenyl)-4-oxo-1H-quinoline-3-carboxamide] | < 10 µM | ++ (between 25% to 100%) |
| CCOCCOc1cc(NC(=O)c2c[nH]c3ccccc3c2=O)ccc1C(C)(C)C [Compound 161, N-[3-(2-ethoxyethoxy)-4-tert-butyl-phenyl]-4-oxo-1H-quinoline-3-carboxamide] | < 10 µM | ++ (between 25% to 100%) |
| COC(=O)c1ccc(-c2ccccc2NC(=O)c2c[nH]c3ccccc3c2=O)cc1 [Compound 166, 4-[2-[(4-oxo-1H-quinolin-3-yl)carbonylamino]phenyl]benzoic acid methyl ester] | < 10 µM | ++ (between 25% to 100%) |
| Cc1ccc(N)cc1NC(=O)c1c[nH]c2ccccc2c1=O [Compound 94, N-(5-Amino-2-methyl-phenyl)-4-oxo-1H-quinoline-3-carboxamide] | < 10 µM | ++ (between 25% to 100%) |
| CC(C)(C)c1cc(C(C)(C)C)c(NC(=O)c2c[nH]c3cccc(N)c3c2=O)cc1O [Compound 585, 5-amino-N-(5-hydroxy-2,4-ditert-butyl-phenyl)-4-oxo-1H-quinoline-3-carboxamide] | < 10 µM | +++ (>100%) |
| CC(C)(C)c1cc(F)c(NC(=O)c2c[nH]c3cc(F)c(F)cc3c2=O)cc1O [Compound 486, 6,7-difluoro-N-(2-fluoro-5-hydroxy-4-tert-butyl-phenyl)-4-oxo-1H-quinoline-3-carboxamide] | < 10 µM | ++ (between 25% to 100%) |
| CC(C)(C)c1cc(C(C)(C)C)c(NC(=O)c2c[nH]c3ccc(Cl)cc3c2=O)cc1O [Compound 623, 6-chloro-N-(5-hydroxy-2,4-ditert-butyl-phenyl)-4-oxo-1H-quinoline-3-carboxamide] | < 10 µM | ++ (between 25% to 100%) |
| CC(C)(C)c1ccc(NC(=O)c2c[nH]c3ccc(F)cc3c2=O)cc1O [Compound 490, 6-fluoro-N-(3-hydroxy-4-tert-butyl-phenyl)-4-oxo-1H-quinoline-3-carboxamide] | < 10 µM | ++ (between 25% to 100%) |

| Structure (SMILES) | EC50 | % Activity |
| --- | --- | --- |
| Cn1ccc2ccc(NC(=O)c3c[nH]c4ccccc4c3=O)cc21 [Compound 169, N-(1-methyl-1H-indol-6-yl)-4-oxo-1H-quinoline-3-carboxamide] | 10 to 25 µM | ++ (between 25% to 100%) |
| O=C(Nc1ccc(S(=O)(=O)Nc2ccccn2)cc1)c1c[nH]c2ccccc2c1=O [Compound 21, 4-oxo-N-[4-(2-pyridylsulfamoyl)phenyl]-1H-quinoline-3-carboxamide] | 25 to 60 µM | + (<25%) |
| O=C(Nc1cc2[nH]ccc2cc1C(F)(F)F)c1c[nH]c2ccccc2c1=O [Compound 234, 4-oxo-N-[5-(trifluoromethyl)-1H-indol-6-yl]-1H-quinoline-3-carboxamide] | < 10 µM | ++ (between 25% to 100%) |
| CC(C)(C)c1cc(C(C)(C)C)c(NC(=O)c2c[nH]c3ccc(C#N)cc3c2=O)cc1O [Compound 525, 6-cyano-N-(5-hydroxy-2,4-ditert-butyl-phenyl)-4-oxo-1H-quinoline-3-carboxamide] | < 10 µM | + (<25%) |
| CC(=O)c1cccc(NC(=O)c2c[nH]c3ccccc3c2=O)c1 [Compound 328, N-(3-acetylphenyl)-4-oxo-1H-quinoline-3-carboxamide] | 25 to 60 µM | + (<25%) |
| CCOc1ccc(NC(C)=O)cc1NC(=O)c1c[nH]c2ccccc2c1=O [Compound 132, N-(5-acetylamino-2-ethoxy-phenyl)-4-oxo-1H-quinoline-3-carboxamide] | 25 to 60 µM | + (<25%) |
| O=C(Nc1ccc(C(F)(F)F)cc1Cl)c1c[nH]c2ccccc2c1=O [Compound 532, N-[2-chloro-4-(trifluoromethyl)phenyl]-4-oxo-1H-quinoline-3-carboxamide] | < 10 µM | ++ (between 25% to 100%) |
| Cn1cc(C(=O)Nc2ccccc2)c(=O)c2ccccc21 [Compound 468, 1-methyl-4-oxo-N-phenyl-1H-quinoline-3-carboxamide] | 25 to 60 µM | + (<25%) |
| Cc1nc2cc(NC(=O)c3c[nH]c4ccccc4c3=O)ccc2s1 [Compound 44, N-(2-methylbenzothiazol-5-yl)-4-oxo-1H-quinoline-3-carboxamide] | 10 to 25 µM | ++ (between 25% to 100%) |
| Cc1ccc(C)n1-c1ccccc1NC(=O)c1c[nH]c2ccccc2c1=O [Compound 297, N-[2-(2,5-dimethyl-1H-pyrrol-1-yl)phenyl]-4-oxo-1H-quinoline-3-carboxamide] | < 10 µM | ++ (between 25% to 100%) |
| O=C(Nc1ccccc1N1CCCCC1)c1c[nH]c2ccccc2c1=O [Compound 26, 4-oxo-N-[2-(1-piperidyl)phenyl]-1H-quinoline-3-carboxamide] | < 10 µM | ++ (between 25% to 100%) |
| CN(C(=O)c1c[nH]c2ccccc2c1=O)c1cc(O)c(C(C)(C)C)cc1C(C)(C)C [Compound 337, N-(5-hydroxy-2,4-ditert-butyl-phenyl)-N-methyl-4-oxo-1H-quinoline-3-carboxamide] | < 10 µM | ++ (between 25% to 100%) |
| CC(C)(C)c1cc(C(F)(F)F)c(NC(=O)c2c[nH]c3ccccc3c2=O)cc1O [Compound 266, N-[5-hydroxy-4-tert-butyl-2-(trifluoromethyl)phenyl]-4-oxo-1H-quinoline-3-carboxamide] | < 10 µM | ++ (between 25% to 100%) |
| O=C(Nc1ccccc1-c1ccccc1Oc1ccccc1)c1c[nH]c2ccccc2c1=O [Compound 247, 4-oxo-N-[2-(2-phenoxyphenyl)phenyl]-1H-quinoline-3-carboxamide] | < 10 µM | ++ (between 25% to 100%) |
| CC1(C)CCCN(c2ccc(NC(=O)c3c[nH]c4ccccc4c3=O)c(C(F)(F)F)c2)C1 [Compound 612, N-[4-(3,3-dimethyl-1-piperidyl)-2-(trifluoromethyl)phenyl]-4-oxo-1H-quinoline-3-carboxamide] | < 10 µM | ++ (between 25% to 100%) |
| CC(C)(C)c1ccc(NC(=O)c2c[nH]c3ccccc3c2=O)cc1S(N)(=O)=O [Compound 268, 4-oxo-N-(3-sulfamoyl-4-tert-butyl-phenyl)-1H-quinoline-3-carboxamide] | 10 to 25 µM | ++ (between 25% to 100%) |
